According to patent publication US5985922A, “Amino acid derivatives and active oxygen-resisting agent” (Ajinomoto Co., Inc., priority 1997, dated 1999):

What was measured:
[1] = Test for a Solubility (oil solvents, 1% by weight); format: physicochemical
Procedure: The solubility in the solvent shown in Table 2 when the concentration was 1% by weight was evaluated.

lipid peroxidation = assay: Test for an Active Oxygen Resistance (inhibition of lipid peroxidation in mouse brain homogenate); format: biochemical; details: whole brain homogenate, C57 black mouse, 20-mM phosphate buffer; 37° C., 30 minutes
Procedure: The test was conducted according to the method described in Method in Enzymol., vol. 52, p. […] The outline of the test method was that a homogenized 20-mM phosphate buffer of the whole brain of a C57 black mouse was prepared, a test substance was added thereto, and an absorbance of the mixture was measured.
Percent peroxidation inhibition (%)--
A1 : Absorbance in the addition of the test compound
A2 : Absorbance before the addition of the test compound
A3 : Absorbance when the test compound is not added, nor is the heating at 37° C. for 30 minutes conducted.

Row | Solubility in liquid paraffin [1] | Solubility in olive oil [1] | Structure (SMILES) | Percent inhibition of lipid peroxidation (lipid peroxidation) [%]
1 | soluble | soluble | CCCCCCCCCCCCOC(=O)CNCc1ccccc1O [Synthesis Example 3, N-(2-hydroxybenzyl)glycine lauryl ester] | 
2 |  |  | O=C(O)CC(O)(CC(=O)O)C(=O)O [Citric acid, reference compound] | -15
3 | insoluble | insoluble | C[C@H](NCc1ccccc1O)C(=O)O [N-(2-hydroxybenzyl)-L-alanine, reference compound] | 6
4 | soluble | soluble | CCCCCCCCCCCCCCCCCCOC(=O)[C@H](C)NCc1ccccc1O [Synthesis Example 2, N-(2-hydroxybenzyl)-L-alanine stearyl ester] | 16
5 | soluble | soluble | CCCCCCCCCCCCOC(=O)[C@H](C)NCc1ccccc1O [Synthesis Example 1, N-(2-hydroxybenzyl)-L-alanine lauryl ester] | 39
6 | insoluble | insoluble | O=C(O)CNCc1ccccc1O [N-(2-hydroxybenzyl)-L-glycine, reference compound] | 
7 | gelling | soluble | CCCCCCCCCCCCNC(=O)[C@H](Cc1ccccc1)NCc1ccccc1O [Synthesis Example 8, N-(2-hydroxybenzyl)phenylalanine laurylamide] | 
8 | gelling | soluble | CCCCCCCCCCCCNC(=O)CNCc1ccccc1O [Synthesis Example 7, N-(2-hydroxybenzyl)glycine laurylamide] | 
9 | gelling | soluble | CCCCCCCCCCCCCCCCCCNC(=O)[C@H](C)NCc1ccccc1O [Synthesis Example 6, N-(2-hydroxybenzyl)-L-alanine stearylamide] | 17
10 | soluble | soluble | CCCCCCCCCCCCOC(=O)[C@H](Cc1ccccc1)NCc1ccccc1O [Synthesis Example 4, N-(2-hydroxybenzyl)-L-phenylalanine lauryl ester] | 
11 |  |  | O=C1O[C@H]([C@@H](O)CO)C(O)=C1O [Vitamin C, reference compound] | -23
12 | gelling | soluble | CCCCCCCCCCCCNC(=O)[C@H](C)NCc1ccccc1O [Synthesis Example 5, N-(2-hydroxybenzyl)-L-alanine laurylamide] | 80
13 | insoluble | insoluble | O=C(O)[C@H](Cc1ccccc1)NCc1ccccc1O [N-(2-hydroxybenzyl)-L-phenylalanine, reference compound] | 
